Experimental data published in patent US12570599B2, “Process for preparing acyl-capped 3-hydroxycarboxylic acids and their salts and esters” (KetoLipix Therapeutics GmbH, priority 2019, dated 2026).

Key:
[1] = several grams taken, patients; cited from earlier work
[2] = tested on: pancreatin (Panzytrat 40,000); test: Cleavage experiments with pancreatin in water, followed by acid number; format: in vitro ADME, porcine; conditions: each ester in its pure form, 50° C.
Method: 2 g of each of the 3-acetoacetate-BHB ethyl esters prepared as described above and the 3-acetoacetate-BHB fatty alcohol esters prepared as described above are dissolved in 50 g water and 0.5 g (1% by weight) pancreatin is added. The pancreatin is used in the form of the commercially available product Panzytrat® 40,000 from the Allergan company. The whole mixture is stirred on a hot plate at 50° C.; the course of the reaction is determined and monitored by continuously recording the acid number over time. […] This is confirmed by corresponding analytics. The experiment proves that both the 3-acetylaceto-BHB ethyl ester according to the invention and the functionalized derivatives (i. e. 3-acetylaceto-BHB fatty alcohol esters) are suitable physiological precursors for 3-hydroxybutyric acid for the corresponding keto body therapies. The experiments are repeated and verified using each ester in its pure form.

[3] = Cleavage experiments in FaSSIF medium simulating the intestinal tract, with or without pancreatin (Panzytrat); format: in vitro ADME; conditions: in the presence or absence of pancreatin
Excerpt: (§1) Esters tested: • 3-Acetylaceto-BHB ethyl ester • 3-Acetylaceto-BHB decyl ester • 3-Acetylaceto-BHB oleyl ester • 3-Acetylaceto-BHB cetyl ester • 3-Acetylaceto-BHB-margaryl ester • 3-Acetylaceto-BHB stearyl ester • 3-Acetylaceto-BHB behenyl ester • 3-Acetylaceto-BHB melissyl ester • 3-Acetylaceto-BHB palmitoyl ester • 3-Acetylaceto-BHB linoleyl ester For the cleavage experiments under near-body conditions two media are investigated: • FaSSGF, which simulates the stomach • FaSSIF, which simulates the intestinal tract Both media are from the company Biorelevant®, Ltd. in Great Britain. In addition, in some experiments porcine pancreas is added (Panzytrat® 40,000, Fa. Allergan).
(§2) Under FaSSIF conditions, a lower conversion using Panzytrat® takes place.

[4] = Cleavage experiments in FaSSGF medium simulating the stomach, with or without pancreatin (Panzytrat); format: in vitro ADME; conditions: in the presence or absence of pancreatin
Excerpt: as §1, §2

SMILES	duration of ketosis [1]	cleavage by pancreatin [2]	cleavage in intestinal medium [3]	cleavage in gastric medium [4]
CC(O)CC(=O)O (stereo not shown) [3-hydroxybutyric acid]	three to four			
CCOC(=O)CC(C)OC(=O)CC(C)=O (stereo not shown) [3-acetylaceto-BHB ethyl ester, 3-acetylacetobutyric acid ethyl ester]		cleaved by pancreatin	cleavage to 3-BHB in the free form	cleavage to 3-BHB in the free form
